According to PubChem BioAssay (NCI):
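Interpolation was linear, between the two tested concentrations surrounding the appropriate level; five concentrations were tested over 48 hours in 96-well plates. GI50: concentration for 50% inhibition of growth. TGI denotes the concentration required for complete inhibition of growth.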

Key:
Assay in all cases: growth of human tumour cells (NCI), 48 h; in the data active = GI50 below about 0.43 µM; inactive = the rest
OVCAR-8 ovarian = system: OVCAR-8 ovarian
SF-268 CNS = system: SF-268 CNS
HL-60(TB) leukemia = system: HL-60(TB) leukemia
SN12C renal = system: SN12C renal
MDA-MB-435 = system: MDA-MB-435
M14 melanoma = system: M14 melanoma
HS 578T breast = system: HS 578T breast
K-562 leukemia = system: K-562 leukemia
ACHN renal = system: ACHN renal
PC-3 prostate = system: PC-3 prostate
OVCAR-5 ovarian = system: OVCAR-5 ovarian
LOX IMVI melanoma = system: LOX IMVI melanoma
RPMI-8226 leukemia = system: RPMI-8226 leukemia
NCI-H226 lung = system: NCI-H226 lung
KM12 colon = system: KM12 colon
UACC-62 melanoma = system: UACC-62 melanoma
OVCAR-4 ovarian = system: OVCAR-4 ovarian
SR leukemia = system: SR leukemia
UO-31 renal = system: UO-31 renal
MCF7 breast = system: MCF7 breast
T-47D breast = system: T-47D breast
U251 CNS = system: U251 CNS
SK-MEL-28 melanoma = system: SK-MEL-28 melanoma
786-0 renal = system: 786-0 renal
SK-MEL-5 melanoma = system: SK-MEL-5 melanoma
SK-MEL-2 melanoma = system: SK-MEL-2 melanoma
COLO 205 colon = system: COLO 205 colon
NCI/ADR-RES ovarian = system: NCI/ADR-RES ovarian
HT29 colon = system: HT29 colon
MALME-3M melanoma = system: MALME-3M melanoma
HOP-92 NSCLC = system: HOP-92 NSCLC
A549 NSCLC = system: A549 NSCLC
EKVX NSCLC = system: EKVX NSCLC
MDA-MB-231 breast = system: MDA-MB-231 breast
IGROV1 ovarian = system: IGROV1 ovarian
NCI-H23 lung = system: NCI-H23 lung
NCI-H460 lung = system: NCI-H460 lung
UACC-257 melanoma = system: UACC-257 melanoma
SW-620 colon = system: SW-620 colon
SF-295 CNS = system: SF-295 CNS
MOLT-4 leukemia = system: MOLT-4 leukemia
TK-10 renal = system: TK-10 renal
SNB-19 CNS = system: SNB-19 CNS
CCRF-CEM leukemia = system: CCRF-CEM leukemia
SNB-75 CNS = system: SNB-75 CNS
DU-145 prostate = system: DU-145 prostate
BT-549 breast = system: BT-549 breast
SK-OV-3 ovarian = system: SK-OV-3 ovarian
CAKI-1 renal = system: CAKI-1 renal
HCT-15 colon = system: HCT-15 colon
HOP-62 NSCLC = system: HOP-62 NSCLC
OVCAR-3 ovarian = system: OVCAR-3 ovarian
SF-539 CNS = system: SF-539 CNS
RXF 393 renal = system: RXF 393 renal
NCI-H522 lung = system: NCI-H522 lung
HCT-116 colon = system: HCT-116 colon
HCC-2998 colon = system: HCC-2998 colon

CO[C@@H]1/C=C(C)/C=C/[C@@H](C)/C=C(\C)C(=O)OC(/C(C)=C/C=C(\C)CNC(=O)[C@H](CO)NC=O)[C@@H](C)/C=C/C=C/[C@H](OC)CC/C=C(C)/C=C/C1 (some centres undefined)
12100 nM: TGI (BT-549 breast)
16800 nM: TGI (T-47D breast)
6880 nM: TGI (HCT-15 colon)
9480 nM: TGI (SK-OV-3 ovarian)
> 42200 nM: TGI (MOLT-4 leukemia)
24.2 nM: TGI (A549 NSCLC)
inactive: GI50 (EKVX NSCLC) 5560 nM
> 11900 nM: TGI (SR leukemia)
12500 nM: TGI (OVCAR-5 ovarian)
627 nM: TGI (COLO 205 colon)
15400 nM: TGI (NCI/ADR-RES ovarian)
11400 nM: TGI (SK-MEL-28 melanoma)
> 25800 nM: TGI (SNB-75 CNS)
active: GI50 (OVCAR-8 ovarian) 10.5 nM | GI50 (SF-268 CNS) < 5 nM | GI50 (HL-60(TB) leukemia) < 5 nM | GI50 (SN12C renal) 182 nM | GI50 (MDA-MB-435) < 5 nM | GI50 (M14 melanoma) < 5 nM | GI50 (HS 578T breast) < 5 nM | GI50 (K-562 leukemia) < 5 nM | GI50 (ACHN renal) 9.04 nM | GI50 (PC-3 prostate) < 5 nM | GI50 (OVCAR-5 ovarian) 178 nM | GI50 (LOX IMVI melanoma) < 5 nM | GI50 (RPMI-8226 leukemia) < 5 nM | GI50 (NCI-H226 lung) < 5 nM | GI50 (KM12 colon) < 5 nM | GI50 (UACC-62 melanoma) < 5 nM | GI50 (OVCAR-4 ovarian) < 5 nM | GI50 (SR leukemia) < 5 nM | GI50 (UO-31 renal) < 5 nM | GI50 (MCF7 breast) < 5 nM | GI50 (T-47D breast) 24.3 nM | GI50 (U251 CNS) < 5 nM | GI50 (SK-MEL-28 melanoma) 8.43 nM | GI50 (786-0 renal) < 5 nM | GI50 (SK-MEL-5 melanoma) < 5 nM | GI50 (SK-MEL-2 melanoma) < 5 nM | GI50 (COLO 205 colon) 8.16 nM | GI50 (NCI/ADR-RES ovarian) 58.7 nM | GI50 (HT29 colon) < 5 nM | GI50 (MALME-3M melanoma) 10.1 nM | GI50 (HOP-92 NSCLC) < 5 nM | GI50 (A549 NSCLC) 8.81 nM | GI50 (MDA-MB-231 breast) 292 nM | GI50 (IGROV1 ovarian) < 5 nM | GI50 (NCI-H23 lung) < 5 nM | GI50 (NCI-H460 lung) < 5 nM | GI50 (UACC-257 melanoma) 23.8 nM | GI50 (SW-620 colon) < 5 nM | GI50 (SF-295 CNS) < 5 nM | GI50 (MOLT-4 leukemia) < 5 nM | GI50 (TK-10 renal) < 5 nM | GI50 (SNB-19 CNS) 303 nM | GI50 (CCRF-CEM leukemia) < 5 nM | GI50 (SNB-75 CNS) 242 nM | GI50 (DU-145 prostate) 169 nM | GI50 (BT-549 breast) < 5 nM | GI50 (SK-OV-3 ovarian) 332 nM | GI50 (CAKI-1 renal) < 5 nM | GI50 (HCT-15 colon) 22.5 nM | GI50 (HOP-62 NSCLC) < 5 nM | GI50 (OVCAR-3 ovarian) < 5 nM | GI50 (SF-539 CNS) < 5 nM | GI50 (RXF 393 renal) 285 nM | GI50 (NCI-H522 lung) < 5 nM | GI50 (HCT-116 colon) < 5 nM
6910 nM: TGI (PC-3 prostate)
221 nM: TGI (NCI-H226 lung)
266 nM: TGI (NCI-H23 lung)
16500 nM: TGI (CCRF-CEM leukemia)
9120 nM: TGI (SNB-19 CNS)
15600 nM: TGI (EKVX NSCLC)
9150 nM: TGI (IGROV1 ovarian)
187 nM: TGI (ACHN renal)
1090 nM: TGI (SF-268 CNS)
322 nM: TGI (786-0 renal)
9.51 nM: TGI (SF-295 CNS)
592 nM: TGI (CAKI-1 renal)
8000 nM: TGI (KM12 colon)
18700 nM: TGI (NCI-H522 lung)
6110 nM: TGI (HCT-116 colon)
14500 nM: TGI (DU-145 prostate)
12200 nM: TGI (SN12C renal)
13600 nM: TGI (SW-620 colon)
36.5 nM: TGI (UACC-257 melanoma)
199 nM: TGI (SF-539 CNS)
26.1 nM: TGI (MALME-3M melanoma)
85.2 nM: TGI (HOP-92 NSCLC)
238 nM: TGI (K-562 leukemia)
> 50000 nM: TGI (HL-60(TB) leukemia) | TGI (OVCAR-4 ovarian) | TGI (HT29 colon)
605 nM: TGI (OVCAR-3 ovarian)
< 5 nM: TGI (MDA-MB-435) | TGI (M14 melanoma) | TGI (LOX IMVI melanoma) | TGI (UACC-62 melanoma) | TGI (SK-MEL-5 melanoma) | TGI (HOP-62 NSCLC)
5810 nM: TGI (NCI-H460 lung)
236 nM: TGI (TK-10 renal)
214 nM: TGI (U251 CNS)
3180 nM: TGI (OVCAR-8 ovarian)
11800 nM: TGI (RPMI-8226 leukemia)
808 nM: TGI (RXF 393 renal)
425 nM: TGI (UO-31 renal)
24900 nM: TGI (HS 578T breast)
9140 nM: TGI (MCF7 breast)

Cc1ccc(N2CCc3c(C)c(C#N)c4nc5ccccc5n4c32)cc1
57500 nM: TGI (HOP-92 NSCLC)
48300 nM: TGI (HS 578T breast)
> 100000 nM: TGI (OVCAR-8 ovarian) | TGI (SF-268 CNS) | TGI (HL-60(TB) leukemia) | TGI (SN12C renal) | TGI (MDA-MB-435) | TGI (ACHN renal) | TGI (PC-3 prostate) | TGI (OVCAR-5 ovarian) | TGI (LOX IMVI melanoma) | TGI (NCI-H226 lung) | TGI (UACC-62 melanoma) | TGI (OVCAR-4 ovarian) | TGI (SR leukemia) | TGI (UO-31 renal) | TGI (MCF7 breast) | TGI (U251 CNS) | TGI (SK-MEL-28 melanoma) | TGI (786-0 renal) | TGI (SK-MEL-5 melanoma) | TGI (SK-MEL-2 melanoma) | TGI (COLO 205 colon) | TGI (NCI/ADR-RES ovarian) | TGI (HT29 colon) | TGI (MALME-3M melanoma) | TGI (A549 NSCLC) | TGI (IGROV1 ovarian) | TGI (NCI-H23 lung) | TGI (NCI-H460 lung) | TGI (UACC-257 melanoma) | TGI (SW-620 colon) | TGI (SF-295 CNS) | TGI (TK-10 renal) | TGI (SNB-19 CNS) | TGI (CCRF-CEM leukemia) | TGI (DU-145 prostate) | TGI (BT-549 breast) | TGI (SK-OV-3 ovarian) | TGI (CAKI-1 renal) | TGI (HCC-2998 colon) | TGI (HCT-15 colon) | TGI (HOP-62 NSCLC) | TGI (OVCAR-3 ovarian) | TGI (SF-539 CNS) | TGI (RXF 393 renal) | TGI (NCI-H522 lung) | TGI (HCT-116 colon)
62000 nM: TGI (SNB-75 CNS)
